Source: US12685738B2, “Inotodiol as agonist of liver x receptors, and use thereof” (CARBOEXPERT INC., priority 2020, dated 2026)
Where “and” joins values, the source holds several entries; their conditions need not be identical. Equal entries are not always repeated. Where two headings read alike, the source gives them in different places.

Key:
TNF-α = TNF-α ELISA in arthritic animals; type: in vivo, mouse; details: arthritic animals administered with inotodiol; FIG. 8
Protocol: Next, the expression of TNF-α, which is a factor that activates inflammation, was confirmed. […] Then, the coating buffer was removed, followed by washing three times with 200 μL of washing buffer (0.05% Tween20/PBS). To prevent non-specific binding, a reaction with 200 μL of a blocking solution (1% BSA/PBS) was allowed to occur at room temperature for 1 hour. Washing was performed three times using a washing buffer. A standard material (Biolgend) and each sample were diluted using a blocking solution, and then 100 μL of each thereof was dispensed, and a reaction was allowed to occur therein at room temperature for 2-4 hours. Washing was performed three times using a washing buffer. A secondary antibody (biotin-labeled detection antibody, biolegend) was diluted to 0.25-2 μg/mL using a blocking solution, and then 100 μl thereof was dispensed and a reaction was allowed to occur therein at room temperature for 1 hour. Washing was performed three times using a washing buffer. Avidin-Horseradish peroxidase (Biolegend) was diluted 1/1000 times using a blocking solution, then 100 μL thereof was dispensed and a reaction was allowed to occur therein at room temperature for 30 minutes. Washing was performed 5 times using a washing buffer. […] An ELISA plate was examined at 450 nm using an EPOCH microplate reader (Biotek).

ABCA1 = assay: Real-time PCR of ABCA1 gene expression in brain tissue; type: in vivo, Balb/c mice; details: Ino (10 mpk) vs control (Naïve); groups prepared as in Example 3; FIG. 6A
Protocol: (§1) When inotodiol was administered to mice, the expression of ABCA1 and APOE in brain tissue, which are genes related to neurodegenerative brain diseases, was analyzed.
(§2) Specifically, as in Example 3, controls and inotodiol-administered mouse groups were prepared, and then, to extract total RNA, first, 50 mg of brain tissue samples were quantified, and then cells were crushed using a mortar. 1 mL of Trizol was dispensed into each crushed sample and mixed by vortexing. Then, 0.2 mL of chloroform was dispensed and a reaction was allowed to occur therein at room temperature for 3 minutes. The reaction product was centrifuged at 12,000 rpm and 4° C. for 15 minutes, and then only the transparent supernatant was transferred to a new tube. Thereafter, 0.5 mL of isopropyl alcohol was dispensed, and then a reaction was allowed to occur therein at room temperature for 10 minutes. The resultant was centrifuged 12,000 rpm and 4° C. for 10 minutes, and then the supernatant was completely removed, and impurities were removed using 1 mL of 75% ethanol. […] Each sample was dissolved using DEPC water, and then total RNA was quantified to 1000 ng/μL using Nanodrop, and cDNA synthesis was performed using primeScript RT Master Mix (Takara Korea). […]

[1] = Two-week mouse toxicity test: health signs and total fat content of liver; details: for changes in total fat content of the liver: male and female mice, 2 weeks
Protocol: If inotodiol is a LXR-α agonist, inotodiol overexpresses Srebf1 in the liver, thereby inducing fatty liver. Selectivity for LXRs and safety of inotodiol were evaluated through a two-week mouse toxicity test.
Specifically, the inotodiol emulsion was orally administered to male and female ICR mice in an amount of 0.0 mg/kg (group 1), 5.0 mg/kg (group 2), and 20 mg/kg (group 3) once a day for 2 weeks. […] As a control, 100% olive oil was administered.

[2] = tested on: LXR-related markers (Abca1, Srebf1_1C, AQP1, ApoE1); assay: In vivo qPCR analysis of effect of inotodiol on LXR-related markers; set-up: species or system mice (BALB/cAnNTacSam)
Protocol: The effect of inotodiol on Abca1, Srebf1_1C, AQP1, and ApoE1, which are LXR-related markers, was analyzed.
First, an inotodiol emulsion for administration at a dose of 4 mg/kg was prepared. Specifically, an emulsion was prepared by mixing inotodiol with 10% of olive oil (Monini, Classico extra virgin olive oil), 0.5% of tween 80, and sterile water. Subsequently, each 0.15 mL of the prepared emulsion was administered to BALB/cAnNTacSam (Sam Taco Bio Korea Co., Ltd.) for 5 days. After 5 days of administration, mice were euthanized, and then spleen, lung, liver and peritoneal cell samples were isolated.
Next, to perform qPCR on the isolated samples, total RNA was extracted using a Bead™ Total RNA Prep Kit (BioFACT™) sample. Thereafter, primers for Abca1, Srebf1_1C, AQP1, and ApoE1 were used, the reaction reagent for qPCR was 2× Real-Time PCR Master Mix (BioFACT™), and the equipment used for qPCR was AriaMx Real-time PCR. The qPCR conditions were as follows: at 95° C. for 15 minutes, and 50 cycles at 95° C. for 20 seconds, 55° C. for 30 seconds, and 72° C. for 0.5-1 min/kb, and for the melting curve, 1 cycle was performed at 95° C. for 30 seconds, 65° C. for 30 seconds, and 95° C. for 30 seconds, and relative mRNA expression was measured.

APOE = assay: Real-time PCR of APOE gene expression in brain tissue; type: in vivo, Balb/c mice; details: Ino (10 mpk) vs control (Naïve); groups prepared as in Example 3; FIG. 6B
Protocol: as §1, §2

rheumatoid arthritis = assay: Bovine type II collagen-induced arthritis, macroscopic arthritic score; type: in vivo, male DBA/1J mice; details: 4 mg/kg or 10 mg/kg orally once a day for 4 weeks; vs arthritic animals not administered; FIG. 7
[3] = Inotodiol concentrations in blood and brain tissue (LC/MS); type: in vivo, Balb/c mice; details: 4.5 mg/kg orally for 10 days, sampled day 11; for concentration at 11 day: 4.5 mg/kg
Protocol: When inotodiol was administered to mice, the concentrations of inotodiol detected in blood and brain tissue of the mice were analyzed.
Specifically, 7-week-old Balb/c mice were supplied and acclimatized for 1 week, and then 4 mice per group were assigned to conduct experiments. Mice were grouped into: four controls not administered with inotodiol; and four groups administered with inotodiol. In the groups administered with inotodiol, 4.5 mg/kg of inotodiol was orally administered for 10 days. On day 11, the controls and inotodiol-administered mice were sacrificed, and blood and brain tissue samples were prepared.
First, to analyze the concentration of inotodiol in blood, 20 μL of serum was transferred to a 1.5 mL Eppendorf tube, and then inotodiol was extracted twice in ethanol. In each extraction step, 200 μL of ethanol was mixed with serum and the mixture was sonicated for 10 minutes, followed by centrifugation at 14000×g for 15 minutes.
To analyze the concentration of inotodiol in brain tissue, the whole brain was weighed and mixed with 10-fold (v/w) 100% ethanol, and then the mixture was sonicated and centrifuged.
After centrifugation, each residue was reconstituted with 0.5 mL of 60% methanol for solid phase extraction by using a C18 cartridge (Sep-Pak C18 3 cc Vac Cartridge, 200 mg adsorbent, Waters). Samples were loaded into cartridges and activated using methanol (6 mL), followed by conditioning with 60% methanol (6 mL). The cartridges were then washed with 6 mL of 60% methanol. Then, inotodiol was collected by eluting the cartridges with 100% methanol (3 mL) in glass tubes. After evaporation of each sample, the residue was dissolved in methanol and subjected to LC/MS analysis.

[4] = inotodiol emulsion 4 mg/kg for 5 days, various samples (FIGS. 1 to 5), vs untreated control
[5] = liver sample, 4 mg/kg for 5 days

CC(C)=CC[C@@H](O)[C@@H](C)[C@H]1CC[C@@]2(C)C3=C(CC[C@]12C)[C@@]1(C)CC[C@H](O)C(C)(C)[C@@H]1CC3 [inotodiol, (3S,5R,10S,13R,14R,17R)-17-[(2S,3R)-3-hydroxy-6-methylhept-5-en-2-yl]-4,4,10,13,14-pentamethyl-2,3,5,6,7,11,12,15,16,17-decahydro-1H-cyclopenta[a]phenanthren-3-ol]
TNF-α expression (ELISA) (TNF-α): lower level | ABCA1 gene expression in brain tissue (ABCA1): highly expressed | Total fat (%) in mouse liver, Average ([1]; Female, Group 2 (5.0 mg/kg oral once a day for 2 weeks)): 3.24% | Total fat (%) in mouse liver, individual animal analyses ([1]; Female, Group 2 (5.0 mg/kg oral once a day for 2 weeks), 5 mg/kg): 2.96% and 3.08% and 2.80% and 2.72% and 3.45% and 3.57% and 3.03% and 3.10% and 4.42% and 3.82% and 2.85% and 3.09% | Total fat (%) in mouse liver, Average ([1]; Female, Group 3 (20 mg/kg oral once a day for 2 weeks)): 3.56% | Total fat (%) in mouse liver, individual animal analyses ([1]; Female, Group 3 (20 mg/kg oral once a day for 2 weeks), 20 mg/kg): 4.01% and 4.03% and 3.49% (2×) and 2.69% and 2.94% and 3.09% and 3.19% and 3.16% and 3.23% and 4.77% and 4.62% | Total fat (%) in mouse liver, Average ([1]; Male, Group 2 (5.0 mg/kg oral once a day for 2 weeks)): 3.23% | Total fat (%) in mouse liver, individual animal analyses ([1]; Male, Group 2 (5.0 mg/kg oral once a day for 2 weeks), 5 mg/kg): 3.39% and 3.25% and 3.48% and 3.47% and 2.83% and 2.72% and 2.86% and 3.78% and 3.19% and 3.17% and 3.18% and 3.43% | Total fat (%) in mouse liver, Average ([1]; Male, Group 3 (20 mg/kg oral once a day for 2 weeks)): 3.27% | Total fat (%) in mouse liver, individual animal analyses ([1]; Male, Group 3 (20 mg/kg oral once a day for 2 weeks), 20 mg/kg): 3.38% and 3.52% and 3.44% and 3.47% and 3.07% and 3.10% and 3.23% and 3.30% and 3.36% and 3.41% and 2.99% and 2.93% | changes in total fat content of the liver ([1]; dose of 5 mg/kg): no significant changes | changes in total fat content of the liver ([1]; dose of 20 mg/kg): no significant changes | signs of abnormal health ([1]; oral, 5.0 and 20 mg/kg once a day for 2 weeks, male and female ICR mice): No signs of abnormal health | expression of AQP1 (relative mRNA expression) [2, 4]: increases | expression of Abca1 (relative mRNA expression) [2, 4]: increases | expression of ApoE1 (relative mRNA expression) [2, 4]: increases | expression of Srebf1 (relative mRNA expression) [2, 4]: increases | expression of AQP1, regulated by LXR-β [2, 5]: significant increase | expression of Srebf1, specifically regulated by LXR-α [2, 5]: no significant increase | LXR-α / LXR-β selectivity inferred from marker expression ([2]; liver sample, inferred from Srebf1 and AQP1 expression): does not bind well to LXR-α and acts as an agonist by more specifically binding to LXR-β | APOE gene expression in brain tissue (APOE): highly expressed | macroscopic arthritic score (maximum score=16) (rheumatoid arthritis): lower | Inotodiol concentration (ng/g) Brain, individual mice [3]: 177.1 ng/g and 133.3 ng/g and 135.0 ng/g | Inotodiol concentration (ng/g) Brain, Average ([3]; 4 mice): 151.7 ± 21.3 ng/g | Inotodiol concentration (ng/g) Blood, Average ([3]; 4 mice, serum): 12.1 ± 1.3 ng/g | Inotodiol concentration (ng/g) Blood, individual mice ([3]; serum): 10.5 ng/g and 14.2 ng/g and 11.8 ng/g | Kp at 11 day ([3]; Balb/c, mouse, brain / blood (serum), oral, read-out: inotodiol detected in the brain relative to blood): ~12 | concentration at 11 day ([3]; Balb/c, mouse, brain, oral, 4 mice, read-out: Inotodiol concentration (ng/g) Brain, Average): 152 ± 21.3 ng/g | concentration at 11 day ([3]; Balb/c, mouse, brain, oral, read-out: Inotodiol concentration (ng/g) Brain, individual mice): 161 ng/g | concentration at 11 day ([3]; Balb/c, mouse, serum, oral, 4 mice, serum, read-out: Inotodiol concentration (ng/g) Blood, Average): 12.1 ± 1.3 ng/g | concentration at 11 day ([3]; Balb/c, mouse, serum, oral, serum, read-out: Inotodiol concentration (ng/g) Blood, individual mice): 12.2 ng/g
